Experimental data published in patent publication US6790992B2, “Scyphostatin analogues as SMase inhibitors” (Biofrontera Pharmaceuticals GmbH, priority 2002, dated 2004).

Legend:
[1] = Chemical, acid and redox stability; format: physicochemical
[2] = test system: human monocytes; assay: Antiapoptotic activity in TNFα-treated human monocytes (YOPRO-1 staining); format: cell-based; conditions: pretreatment 30 min, 0.1 μm, then TNFα 4 hours; average of 5 experiments; values only in FIG. 3
Experimental: In addition, part of the cells are pretreated with compound 13 (30 min., 0.1 μm). The percentage of apoptotic cells is determined in all of the samples by YOPRO-1 staining^10. Average values from 5 experiments.

[3] = test system: sphingomyleinase activity of mmLDL-stimulated monocytes; assay: Sphingomyelinase activity in mmLDL-stimulated human monocytes; format: cell-based; conditions: compound 13 0.1-0 μm, 30 min pretreatment, then mmLDL 4 hours; average of 5 experiments; values only in FIG. 4
Experimental: Average values from 5 individual experiments.
90 nM BODIPY-FL-C5 sphingomylein (molecular probes) are dissolved in 200 μl ethanol, then injected into 10 ml PBS containing 0.75 mg/ml BSA. The solution is dialyzed extensively against PBS, the resulting dialyzate is sterile-filtered and diluted 1:1 using RPMI medium. Together with the solution a monolayer of human monocytes' is incubated with 5% CO2 at 37° C. for 4 hours, washed twice with 5 ml PBS, admixed with new medium and then incubated at the corresponding concentrations of compound (13) for 30 minutes. The pretreated cells are treated with slightly modified low-density lipoprotein (mmLDL)^10 for 4 hours and extracted according to Bligh and Dyer^11. The enzyme activity is determined by the ratio of BODIPY-FL-C5—sphingomyelin to BODIPY-FL-C5 ceramide^12.

[4] = background statement, cited from earlier work

| Structure (SMILES) | Chemical stability (e.g. stability in acidic solutions) ([1]; epoxide-free analogues, compared with natural scyphostatin) | Stability at pH 2 ([1]; pH values of 2 at 40° C. for a period of several hours) | Antiapoptotic activity (percentage of apoptotic cells) [2] | Inhibitory effect on the sphingomyleinase activity [3] | Chemical and metabolic stability ([4]; natural scyphostatin) | Stability in acid ([4]; natural substance) |
| --- | --- | --- | --- | --- | --- | --- |
| CCCCCCCCCCCCCCCC(=O)N[C@H](CO)C[C@]1(O)CCC=CC1=O [compound 13, hexadecanoic acid-[1-hydroxymethyl-2-(1-hydroxy-2-oxo-cyclohex-3-enyl)ethyl]amide] | increased chemical stability | stable | Antiapoptotic activity | Inhibitory effect |  |  |
| CC[C@@H](C)/C=C(\C)C[C@@H](C)C[C@@H](C)/C=C/C=C/C=C/C(=O)N[C@H](CO)C[C@@]1(O)C(=O)C=C[C@@H]2O[C@@H]21 [scyphostatin] |  |  |  |  | chemically and metabolically very unstable | unstable in acid |
